Key:
[1] = test system: human adipocytes; experiment: Glycerin release (lipolysis) from human adipocytes treated with EVs; assay type: cell-based; details: for Released glycerin level from adipocytes treated with Panc-1 EVs in presence of inhibitor: 10 μM H89, 0.5 μM orlistat, Cay10499
Protocol: (§1) Data are in terms of mean±SD (n=3). **P=0.0025. […] Data are in terms of mean±SD (n=3). […] P=0.65.
FIG. 15 This figure is a graph of glycerin release from adipocytes treated for 24 hours with EVs (1.5 μg) derived from Panc-1 cells, in the presence or absence of an inhibitor of endocytosis. The dosage of the inhibitor is as described in FIG. 14. Data are in terms of mean±SD (n=3). P=0.40 (CPZ), *P=0.027 (Nocodazole), *P=0.012 (CytD). **P=0.0065 (Nystatin), and **P=0.0074 (4° C.); comparison with cells treated with EV alone (control). Statistical analyses were carried out using Welch's t-test. […]
EVs having a mode diameter of 100 to 150 nm were isolated from various sources, except for EVs of about 240 nm derived from Capan-2 cells. […] The expression of exosome markers such as TSG101 and CD63 in EVs was confirmed, whereby it was confirmed that EV isolation was appropriate (see FIG. 1). To investigate the effect of EV, mature human adipocytes were induced from human adipose-derived mesenchymal stem cells (hAD-MSCs) and subjected to an EV treatment (see FIGS. 2 to 4). […] Miapapaca-2 cells, and BxPC-3 cells, but it was not observed in adipocytes treated with EVs derived from Capan-2 cells (see FIG. 5).

[2] = test system: adipocytes; experiment: Isoproterenol-induced glycerin release from adipocytes; assay type: cell-based, human
Text: as §1
Further, the dependence of the lipolysis induced by EV, under newly synthesized cAMP, was investigated. In general, a β-stimulant such as isoproterenol activates G proteins, and it subsequently activates adenylyl cyclase, which leads to the synthesis of cAMP.

[3] = test system: human adipocytes; experiment: EV internalization into human adipocytes by β-actin-HiBiT luciferase activity; assay type: cell-based; details: Panc-1 EVs, 1 hour; 20 IM CPZ, 10 μM nocodazole, 20 μM CytD, 2.5 μg/mL nystatin
Protocol: The luciferase level is a luciferase level 5 of adipocytes treated for 1 hour with EV ([…]) in the presence or absence of a treatment with an endocytosis inhibitor (20 IM chlorpromazine (CPZ), 10 μM nocodazole, 20 μM cytochalasin D (CytD), or 2.5 μg/mL nystatin, or incubation at 4° C.), which is a value indicated in terms of comparison with a negative control (PBS). Data are in terms of mean±SD (n=3). P=0.74 (CPZ), *P=0.029 (nocodazole), *P=0.032 (CytD), **P=0.0078 (nystatin), and **P=0.0074 (4° C.); comparison with cells treated with EV alone (control).
Wild type: EVs derived from Panc-1 cells (not expressing HiBiT) as a negative control, EV-H and EV-L: EVs derived from Panc-1-ACTB-HiBiT cells cultured with high glucose and low glucose, respectively. […] P=0.61 (EV-H versus EV-L). […] P=0.72. […] The relative luciferase level of adipocytes treated for 1 hour with 10^9 particles of EVs (EV-H and EV-L) derived from Panc-1-ACTB-HiBiT cells was compared with the negative control (PBS). Data are in terms of mean±SD (n=3). **P=0.0011.
Wild type; Panc-1 cells (not expressing HiBiT) as a negative control, EV and EV-NP40; EVs derived from Panc-1-ACTB-HiBiT cells. 10^9 particles per sample were used. Data are in terms of mean±SD (n=3). **P=0.0017 (EV), **P<[…] (EV-NP40), and **P=0.0026 (EV versus EV-NP40). […] The luciferase level of the lysate of adipocytes treated for 1 hour with EVs (10^9 particles) derived from Panc-1-ACTB-HiBiT cells or EV-NP40 was compared with the negative control (PBS), and the results are shown. Data are in terms of mean±SD (n=3). *P=0.045. Statistical analyses were carried out using Welch's t-test.
β-actin is contained as a pan-EV marker in most EVs derived from human serum and human cell lines. To monitor the EV endocytosis level, a reporter cell (Panc-1-ACTB-HiBiT cell) was established by knocking in the HiBiT peptide sequence at the 3′ terminal of the ACTB locus of Panc-1 cell (see FIGS. 11 and 12). A high luciferase activity was detected in a lysate of cells and in EVs derived from these cells, and thus it was confirmed that the β-actin-HiBiT protein is present in the EVs (see FIGS. 13(A) and 13(B).
The luciferase level of the adipocyte lysate was upregualted 1 hour after the addition of EV and was similar to a level in a case where chlorpromazine, a clathrin-mediated endocytosis inhibitor, was used. […] (see FIG. 14).

[4] = 30 μM SQ22536, 24-hour treatment

COc1nn(-c2ccc(NC(=O)OCc3ccccc3)c(C)c2)c(=O)o1 [Cay10499]
Released glycerin level from adipocytes treated with Panc-1 EVs in presence of inhibitor [1]: significantly reduced

O=S(=O)(NCCNC/C=C/c1ccc(Br)cc1)c1cccc2cnccc12 [H89]
Released glycerin level from adipocytes treated with Panc-1 EVs in presence of inhibitor [1]: significantly reduced

CCCCCCCCCCC[C@@H](C[C@@H]1OC(=O)[C@H]1CCCCCC)OC(=O)[C@H](CC(C)C)NC=O [Orlistat]
Released glycerin level from adipocytes treated with Panc-1 EVs in presence of inhibitor [1]: significantly reduced

Nc1ncnc2c1ncn2C1CCCO1 (stereo not shown) [SQ22536]
Inhibition of lipolysis induced by EVs derived from Panc-1 [1, 4]: did not inhibit
Inhibition of isoproterenol-induced lipolysis [2, 4]: significantly inhibited

CN(C)CCCN1c2ccccc2Sc2ccc(Cl)cc21 [chlorpromazine]
Luciferase level of adipocyte lysate (EV internalization) with endocytosis inhibitor, vs EV alone [3]: similar

C=C1[C@@H](C)[C@H]2[C@H](Cc3ccccc3)NC(=O)[C@]23[C@H](OC(C)=O)/C=C/[C@@](C)(O)C(=O)[C@@H](C)C/C=C/[C@H]3[C@@H]1O [cytochalasin D]
Luciferase level of adipocyte lysate (EV internalization) with endocytosis inhibitor, vs EV alone [3]: significantly lower

CC(C)NCC(O)c1ccc(O)c(O)c1 (stereo not shown) [isoproterenol]
Lipolysis in adipocytes (glycerin release) ([2]; 10 μM isoproterenol): induces lipolysis

COC(=O)Nc1nc2ccc(C(=O)c3cccs3)cc2[nH]1 [nocodazole]
Luciferase level of adipocyte lysate (EV internalization) with endocytosis inhibitor, vs EV alone [3]: significantly lower

C[C@@H]1[C@H](O)[C@@H](C)/C=C/C=C/CC/C=C/C=C/C=C/C=C/C(O[C@H]2O[C@H](C)[C@@H](O)[C@H](N)[C@@H]2O)CC2O[C@](O)(CC(O)C(O)CCC(O)CC(O)CC(O)CC(=O)O[C@H]1C)CC(O)C2C(=O)O (stereo partly shown) [nystatin]
Luciferase level of adipocyte lysate (EV internalization) with endocytosis inhibitor, vs EV alone [3]: significantly lower
